These results are taken from patent publication US8648117B2, “Methods and compositions for treating cancer metastasis” (Golden Biotechnology Corporation, priority 2012, dated 2014).

Data set [1] has as its system MDA-MB-231SA-GFP6 human breast cancer cells. Kind of data set: Breast cancer bone metastasis model (intracardiac inoculation, 25-day study, preventive setting). Format: in vivo. From the text: The objective of this study was to test the efficacy of three different doses of the exemplary compound 1 (Antroquinonol) from Example 1 on breast cancer bone metastases in female athymic nude mice in a 25-day study in preventive setting. The following 5 experimental groups were included in the study:
The vehicle was corn oil. All groups included 15 mice that are 5 weeks of age at the beginning of the study. Based on the body weights the animals were randomized to five groups. On day 0, the animals were given intracardiac inoculation of human breast cancer cells. Body weights were determined twice a week. At sacrifice, the osteolytic lesions and whole body tumor burden were quantified by x-ray and fluorescence imaging, respectively. The test compound and vehicle were administered by oral gavage twice a day. Blood samples for analysing TRACP 5b were collected at days 0, 17 and 24. The animals were sacrificed at day 25, or earlier if they became moribund. Tissue samples were collected for histology and embedded in paraffin from left and right tibia and femur for possible future histomorphometric analyses. Gross necropsy was performed to all animals at the end of the study, and all macroscopic signs were recorded.
(§1) Test compound 1 (99%, 1005 mg/ml) was obtained in liquid form. Three 50× stock solutions were prepared in corn oil (75 mg/ml, 150 mg/ml and 225 mg/ml) and stored them in dark at +4° C. The dosing solutions of 1.5, 3.0 and 4.5 mg/ml were prepared from the stock solutions by diluting the stock solutions in corn oil 1:50. The dosing solutions were prepared once a week and stored in dark at +4° C. The dosing volume was 10 ml/kg. The test compound was administered by oral gavage twice a day with dosing intervals of 10+14 hours. The dosings were performed at the same time every day.
Zoledronic acid was used as a reference compound. 100 μl of Zometa® (Novartis Pharma GmbH, Nürnberg, Germany) 4 mg/5 ml infusion concentrate was diluted in 3.9 ml of sterile saline (0.9% NaCl) to obtain the administration concentration of 0.02 mg/ml. This solution was prepared once during the study and stored at +4° C. The dosing volume was 5 ml/kg, resulting in the dose of 0.1 mg/kg. The reference compound was administered SC twice in the study: at days 1 and 14.
Female athymic nude mice (Hsd: Athymic nude-nu) were obtained from Harlan Laboratories B.V. (Horst, The Netherlands). MDA-MB-231SA-GFP6 human breast cancer cells were received originally from Prof. Theresa Guise (Indiana University, Indianapolis, Ind., USA) and transfected with pTurboGFP-N vector (Evrogen JSC, Moscow, Russia).
This experiment utilized an animal model that closely resembles the characteristics of breast cancer metastatic disease or condition in humans. This model can be effectively used for testing the effects of cancer drug candidates on the metastasis of breast cancer cells to bone. In this model, human breast cancer cells are inoculated into the left cardiac ventricle of 5 weeks old female athymic nude mice. This mouse strain is immunodeficient, allowing rapid spreading of the human cancer cells. Within two weeks after the inoculation, the animals develop osteolytic bone metastases that can be visualized by X-ray radiography. In addition, soft tissue metastases are observed in approximately 40% of the animals, especially in adrenal glands. At 3 weeks, the bone metastases are clearly visible in X-ray radiographs and the animals have developed cachexia and lost weight substantially. The animals are sacrificed typically at 3-4 weeks after inoculation, and their hindlegs are collected for further histomorphometric analysis.
Female Athymic nude mice (Hsd: Athymic nude-nu, obtained from Harlan, The Netherlands) were used for this study. The age of the animals was 5 weeks, and their body weights were approximately 16-22 g at the beginning of the study. The mice were specific pathogen free (SPF) and isolator-reared animals. […]

Data set [2] concerns PC-3 human prostate cancer cells. In words: Prostate cancer bone metastasis model (intratibial inoculation, 5-week study, preventive setting). On the set-up: Fractures / Osteoblastic lesions: unit not given here. Format: in vivo, male athymic nude mice. As to conditions: for Significance (Fractures) / Significance (Osteoblastic lesions): vs control; for Fractures / Osteoblastic lesions: x-ray, qualitative (yes or no).
Excerpt: The objective of this study was to test the efficacy of three different doses of the test compound 1 on prostate cancer bone metastases in male athymic nude mice in a 5-week study in preventive setting. The following 5 experimental groups were included in the study:
The vehicle was corn oil. All groups included 15 mice that were 7 weeks of age at the beginning of the study. Based on the body weights the animals were randomized to five groups. On day 0, the animals were given an intratibial inoculation of human prostate cancer cells. Body weights were determined twice a week. The development of osteoblastic and osteolytic lesions were followed by x-ray. The test compound and vehicle were administered by oral gavage twice a day. The animals were sacrificed at day 35. Tissue samples were collected for histology and embedded in paraffin from left and right tibia and femur for possible future histomorphometric analyses. Gross necropsy was performed to all animals at the end of the study, and all macroscopic signs were recorded.
as §1, with “compound 1 (99.85%, specific density: 1.005) was obtained” for “compound 1 (99%, 1005 mg/ml) was obtained”, “dosings were started at day 1 and performed at” for “dosings were performed at”
Zoledronic acid was used as a reference compound. […] of Zometa® (Novartis Pharma GmbH, Nürnberg, Germany) 4 mg/5 ml infusion concentrate was diluted in 3.9 ml of sterile saline (0.9% NaCl) to obtain the administration concentration of 0.02 mg/ml. This solution was prepared once during the study and stored at +4° C. The dosing volume was 5 ml/kg, resulting in the dose of 0.1 mg/kg. The reference compound was administered SC twice in the study: at days 1 and 14.
Male athymic nude mice (Hsd: Athymic nude-nu, obtained from Harlan, The Netherlands) and PC-3 human prostate cancer cells (ATCC) were used for this study.
In this model, human prostate cancer cells are inoculated into the left proximal tibia of 5-7 week old male athymic nude mice. This mouse strain is immunodeficient, allowing rapid spreading of the human cancer cells. The bone lesions are mixed, being mainly osteolytic but also containing an osteoblastic component. Within four weeks after the inoculation part of the animals have already developed some bone lesions, that can be visualized by X-ray radiography. At 7 weeks, the bone metastases are clearly visible. The animals are sacrificed at 7-8 weeks after inoculation, and their bones are collected for further histomorphometric analysis.
Male athymic nude mice (Hsd: Athymic nude-nu, obtained from Harlan, The Netherlands) were used for this study. The age of the animals was 7 weeks, and their body weights were approximately 18-25 g at the beginning of the study. The mice were specific pathogen free (SPF) and isolator-reared animals. Correct age and good clinical health were qualifications for the study. The minimum quarantine and acclimatization period for the mice was 7 days. Allocation to groups was performed by randomization procedure based on body weight. The animals were marked with tail and ear marks. The mice were housed in Scantainer®, 5 mice per cage. In case of fighting, some of the animals had to be isolated. For intratibial inoculations the mice were anesthetized with i.p. injections of Xylazin (5-6 mg/kg) and Ketamine (92-109 mg/kg). For x-ray imaging the mice were anesthetized with inhalation of isoflurane. […]

Setting [3] is: Day 28, 0.1 mg/kg sc days 1 and 14.
Where [4] appears, read: Sacrifice, 0.1 mg/kg sc days 1 and 14.

`COC1=C(OC)C(O)C(C/C=C(\C)CC/C=C(\C)CCC=C(C)C)C(C)C1=O` (stereo not drawn) [Compound 1, 4-hydroxy-2,3-dimethoxy-6-methyl-5-(3,7,11-trimethyldodeca-2,6,10-trienyl)cyclohex-2-enone]: the Cachectic % in data set [1] (30 mg/kg/d po) was determined as 21.4%; in data set [1] (60 mg/kg/d po) it was 16.7%; in data set [1] (90 mg/kg/d po), 20%. Also, the Paraplegic % came to 57.1% in data set [1] (30 mg/kg/d po), 8.3% in data set [1] (60 mg/kg/d po) and 20.0% in data set [1] (90 mg/kg/d po). The intraosseous tumor area entry in data set [1] (higher doses (60 and 90 mg/kg/d)) was “no effect”. Also, in data set [1] (mouse, in vivo, 90 mg/kg/day), the “body weight at sacrifice” value is “increased”. For the same molecule, in data set [1] (mouse, in vivo, 90 mg/kg/day), the “maximum weight obtained during the study” value is listed as “increased”. Also, the “Significance (Fractures)” value in data set [2] (Day 28, 30 mg/kg/d po) is “* (One asterisk (*) indicates a statistical significance with p-value<0.05)”; in data set [2] (Day 28, 60 mg/kg/d po), “* (One asterisk (*) indicates a statistical significance with p-value<0.05)”; in data set [2] (Sacrifice, 30 mg/kg/d po) it was “* (One asterisk (*) indicates a statistical significance with p-value<0.05)”; in data set [2] (Sacrifice, 60 mg/kg/d po), “* (One asterisk (*) indicates a statistical significance with p-value<0.05)”. Besides, the Fractures came out at 0.0 in data set [2] (Day 28, 30 mg/kg/d po); 0.0 in data set [2] (Day 28, 60 mg/kg/d po); 36.4 in data set [2] (Day 28, 90 mg/kg/d po); 21.4 in data set [2] (Sacrifice, 30 mg/kg/d po); 21.4 in data set [2] (Sacrifice, 60 mg/kg/d po); 36.4 in data set [2] (Sacrifice, 90 mg/kg/d po). Also, the Osteoblastic lesions in data set [2] (Day 28, 30 mg/kg/d po) came out at 0.0; in data set [2] (Day 28, 60 mg/kg/d po), 0.0; in data set [2] (Day 28, 90 mg/kg/d po), 9.1; in data set [2] (Sacrifice, 30 mg/kg/d po), 35.7; in data set [2] (Sacrifice, 60 mg/kg/d po), 21.4; in data set [2] (Sacrifice, 90 mg/kg/d po), 45.5. Besides, in data set [2] (Sacrifice, 60 mg/kg/d po), the “Significance (Osteoblastic lesions)” value is “* (One asterisk (*) indicates a statistical significance with p-value<0.05)”. For the same molecule, the “osteoclast number at tumor-bone interface” value in data set [2] (all doses) is recorded as “no effect”. In addition, the total tumor area result in data set [2] (dose 60 mg/kg/d) is “no effect”. Besides, the “maximum body weight obtained” value in data set [2] (mouse, in vivo, 60 mg/kg/day) is given as “increased”.

Consider `O=P(O)(O)C(O)(Cn1ccnc1)P(=O)(O)O` [Zoledronic acid, reference compound], for which, in data set [1] (0.1 mg/kg sc days 1 and 14), the Cachectic % turned out to be 11.1%, the Paraplegic % is listed as 22.2%, the body weight result is “no effect” and the intraosseous tumor area result is recorded as “no effect”. Besides, the “whole body tumor burden” value in data set [1] (0.1 mg/kg sc days 1 and 14) was “no effect”. In data set [2] (0.1 mg/kg sc days 1 and 14), the body weight result was “no effect”. Moreover, in data set [2] (setting [3]), the “Significance (Fractures)” value is recorded as “* (One asterisk (*) indicates a statistical significance with p-value<0.05)”, the Fractures is on record as 0.0 and the Osteoblastic lesions came out at 0.0. In data set [2] (setting [4]), the “Significance (Fractures)” value is given as “*** (three asterisks (***) a statistical significance with p-value<0.001)”, the “Significance (Osteoblastic lesions)” value is listed as “*** (three asterisks (***) a statistical significance with p-value<0.001)”, the Fractures is 0.0 and the Osteoblastic lesions is given as 0.0.
